Measured values from patent US20060148735A1, “Methods for treating, preventing, or reducing cardiac disorders using fadd inhibitors” (priority 2002, published 2006).
“Also recorded” adds a separate entry of the source. Where a SMILES comes first, the peptide text is derived from it. The star is where a group is joined. Cbz = O=C(OCc1ccccc1)*; CH2F = FC*

Tests used:
caspase-8 = assay: Caspase-8 activity (colorimetric assay) in cardiomyocytes; type: cell-based, rat; details: listed as zIETD-fink
Protocol: (§1) Cardiomyocytes (CM) were prepared from 1-2 day-old rats as described by Matsui et al. (Circulation 100:2373-9, 1999). All CM were incubated in RPMI-1640 containing 5% FBS and 10% horse serum. Neonatal CM grown in 60 mm dishes were infected with Ad.EGFP.β-gal (MOI 20), Ad.FADD-wt, or Ad.FADD-dn (MOI 20), for 24 hours prior to exposure to transient hypoxic conditions, lasting up to 24 hours. To expose CM to transient hypoxia conditions, CM media is changed to N2/CO2-saturated serum-free F10 and cells are placed in an airtight N2-saturated container at 37° C. for up to 24 hours. Hypoxia was confirmed by oxymetry measurements. To examine the role of FADD in inflammatory signaling, cultured neonatal rat CM were stimulated with TNF-α (50 ng/ml) for 4 hours. Nuclear and cytoplasmic extracts were prepared.
(§2) Optionally, apoptosis may also be measured by the protein or gene expression, or alternatively, by the activity of surrogate markers of apoptosis including, for example, caspase activity. Caspase-3, -8, and -9 activity may be examined by using the caspase colorimetric assay kit from R&D Systems according to the manufacturer's protocol. Briefly, cells are scraped, collected, washed with cold PBS, and lysed in cold lysis buffer. […] Release of the pNA cleavage product is quantitated in a microplate reader (Bio-Rad) at a wavelength of 405 nm.

caspase-9 = assay: Caspase-9 activity (colorimetric assay) in cardiomyocytes; type: cell-based, rat; details: pretreatment or over-expression
Protocol: as §1, §2

[1] = tested on: rat neonatal cardiomyocytes; assay: Hypoxia/serum-deprivation-induced cardiomyocyte apoptosis (cell death ELISA, DNA laddering); type: cell-based
Protocol: as §1
For determination of DNA laddering, cellular DNA is extracted with phenol:chloroform, treated with RNase, ^32P-labeled, and then visualized by electrophoresis in 1.8% agarose gel.
Histone-associated DNA fragments were quantified by cell death ELISA as described in the manufacturer's protocol. DNA fragmentation data were corrected for background and normalized to the result with normoxic cardiomyocytes.

NF-κB = assay: TNF-α-induced NF-κB activation in neonatal rat cardiomyocytes (p65 translocation, IκB-α phosphorylation, EMSA); type: cell-based; details: 50 μM
Protocol: as §1, with “prepared. […]” for “prepared.”
Cells were harvested and nuclear extracts prepared as above. […] Nuclear proteins and oligonucleotide were then separated with native PAGE and detected by autoradiography.
Proteins were separated by SDS-PAGE performed under reducing conditions on 7.5%, 10%, and 12% separation gels with a 4% stacking gel. […] After washing, membranes were incubated with horseradish peroxidase-conjugated secondary antibody and immunoreactive bands detected by chemiluminescence.

Row | Structure (SMILES) | hypoxia/SD-induced caspase-8 activation (caspase-8) | hypoxia/SD-induced activation of caspase-9 (caspase-9) | CM apoptosis in response to hypoxia/SD ([1]; 4 h hypoxia/SD) | reversal of the FADD effect on NF-κB (NF-κB) | hypoxia/SD-induced apoptosis (ELISA for histone-associated DNA fragmentation, DNA laddering) ([1]; concentrations ranging from 50 to 100 μM)
1 | CC[C@H](C)[C@H](NC(=O)OCc1ccccc1)C(=O)N[C@@H](CCC(=O)OC)C(=O)N[C@H](C(=O)N[C@@H](CC(=O)OC)C(=O)CF)[C@@H](C)O [zIETD-fmk] (Cbz-IE(OMe)TD(OMe)-CH2F) | completely inhibited; also recorded: effectively blocked | completely inhibited | completely inhibited | failed to reverse | 
2 | COC(=O)C[C@H](NC(=O)[C@H](C)NC(=O)[C@@H](NC(=O)OCc1ccccc1)C(C)C)C(=O)CF [zVAD-fmk] (Cbz-Val-Ala-Asp(OMe)-CH2F) |  |  |  |  | inhibited
